Experimental data: ChEMBL document CHEMBL1144189, “Novel and potent oxazolidinone antibacterials featuring 3-indolylglyoxamide substituents” (Bioorg Med Chem Lett, 2008)
Converted amounts (≈) assume the structure as drawn.

Columns and labels:
[1] = test system: Staphylococcus aureus; assay: Antibacterial activity against methicillin-susceptible Staphylococcus aureus DRCC 035; assay type: functional
[2] = test system: Staphylococcus aureus; assay: Antibacterial activity against methicillin-resistant Staphylococcus aureus DRCC 019; assay type: functional
[3] = test system: Enterococcus faecalis; assay: Antibacterial activity against vancomycin-susceptible Enterococcus faecalis DRCC 034; assay type: functional
[4] = test system: Enterococcus faecalis; assay: Antibacterial activity against vancomycin-resistant Enterococcus faecalis DRCC 153; assay type: functional
[5] = test system: Enterococcus faecium; assay: Antibacterial activity against vancomycin-resistant Enterococcus faecium DRCC 154; assay type: functional
[6] = test system: Haemophilus influenzae; assay: Antibacterial activity against beta-lactamase deficient Haemophilus influenzae DRCC 433; assay type: functional
[7] = test system: Staphylococcus aureus; assay: Antibacterial activity against linezolid-resistant Staphylococcus aureus DRCC 564; assay type: functional
[8] = test system: Enterococcus faecalis; assay: Antibacterial activity against linezolid-resistant Enterococcus faecalis DRCC 632; assay type: functional
[9] = test system: Moraxella catarrhalis; assay: Antibacterial activity against beta-lactamase deficient Moraxella catarrhalis DRCC 300; assay type: functional
[10] = test system: Staphylococcus aureus; assay: Antibacterial activity against Staphylococcus aureus DRCC 035 infected mouse systemic infection model administered orally for 1 day at 1 and 5 hrs post-infection and measured daily for 5 days; assay type: functional; settings: po
[11] = AUC (0 to t) in Swiss albino mouse at 10 mg/kg, po; assay type: ADME, organism-based; design: dose 10 mg/kg, route oral; settings: plasma
[12] = Tmax in Swiss albino mouse at 10 mg/kg, po; assay type: ADME, organism-based; design: dose 10 mg/kg, route oral; settings: in vivo
[13] = Cmax in Swiss albino mouse at 10 mg/kg, po; assay type: ADME, organism-based; design: dose 10 mg/kg, route oral; settings: in vivo
[14] = Half life in Swiss albino mouse at 10 mg/kg, po; assay type: ADME, organism-based; design: dose 10 mg/kg, route oral; settings: in vivo
[15] = Drug elimination in Swiss albino mouse at 10 mg/kg, po; assay type: ADME, organism-based; design: dose 10 mg/kg, route oral; settings: in vivo

Row | Structure (SMILES) | MIC [1] | MIC [2] | MIC [3] | MIC [4] | MIC [5] | MIC [6] | MIC [7] | MIC [8] | MIC [9] | ED50 [10] | AUC(0-t) [11] | Tmax [12] | Cmax [13] | half-life [14] | k el [15]
1 | COc1ccc2[nH]cc(C(=O)C(=O)N3CCN(c4ccc(N5C[C@H](CNC(C)=O)OC5=O)cc4F)CC3)c2c1 | 2 µg/mL (≈ 3.72 µM) | 1 µg/mL (≈ 1.86 µM) | 1 µg/mL (≈ 1.86 µM) | 0.5 µg/mL (≈ 0.93 µM) | 1 µg/mL (≈ 1.86 µM) | > 32 µg/mL | – | – | – | – | – | – | – | – | –
2 | COC(=S)NC[C@H]1CN(c2ccc(N3CCN(C(=O)C(=O)c4c[nH]c5ccc(Br)cc45)CC3)c(F)c2)C(=O)O1 | 1 µg/mL (≈ 1.62 µM) | 1 µg/mL (≈ 1.62 µM) | 1 µg/mL (≈ 1.62 µM) | 0.5 µg/mL (≈ 0.808 µM) | 1 µg/mL (≈ 1.62 µM) | > 32 µg/mL | 2 µg/mL (≈ 3.23 µM) | 2 µg/mL (≈ 3.23 µM) | 1 µg/mL (≈ 1.62 µM) | > 30 mg/kg | – | – | – | – | –
3 | COC(=O)NC[C@H]1CN(c2ccc(N3CCN(C(=O)C(=O)c4c[nH]c5ccc(Br)cc45)CC3)c(F)c2)C(=O)O1 | 1 µg/mL (≈ 1.66 µM) | 0.5 µg/mL (≈ 0.83 µM) | 1 µg/mL (≈ 1.66 µM) | 0.5 µg/mL (≈ 0.83 µM) | 1 µg/mL (≈ 1.66 µM) | > 32 µg/mL | 16 µg/mL (≈ 26.6 µM) | 32 µg/mL (≈ 53.1 µM) | 2 µg/mL (≈ 3.32 µM) | – | – | – | – | – | –
4 | O=C(C(=O)N1CCN(c2ccc(N3C[C@H](CNC(=O)C4CC4)OC3=O)cc2F)CC1)c1c[nH]c2ccc(Br)cc12 | 1 µg/mL (≈ 1.63 µM) | 2 µg/mL (≈ 3.27 µM) | 2 µg/mL (≈ 3.27 µM) | 1 µg/mL (≈ 1.63 µM) | 2 µg/mL (≈ 3.27 µM) | > 32 µg/mL | 8 µg/mL (≈ 13.1 µM) | 8 µg/mL (≈ 13.1 µM) | 4 µg/mL (≈ 6.53 µM) | 18.9 mg/kg | 1260 ng·h/mL | 2 h | 300 ng/mL | 1.13 h | 0.000169 s⁻¹
5 | O=C(C(=O)N1CCN(c2ccc(N3C[C@H](CNC(=O)C(Cl)Cl)OC3=O)cc2F)CC1)c1c[nH]c2ccc(Br)cc12 | 1 µg/mL (≈ 1.53 µM) | 1 µg/mL (≈ 1.53 µM) | 1 µg/mL (≈ 1.53 µM) | 0.25 µg/mL (≈ 0.381 µM) | 0.5 µg/mL (≈ 0.763 µM) | > 32 µg/mL | 4 µg/mL (≈ 6.1 µM) | 4 µg/mL (≈ 6.1 µM) | 2 µg/mL (≈ 3.05 µM) | > 30 mg/kg | – | – | – | – | –
6 | O=C(C(=O)N1CCN(c2ccc(N3C[C@H](Cn4ccnn4)OC3=O)cc2F)CC1)c1c[nH]c2ccc(Br)cc12 | 2 µg/mL (≈ 3.35 µM) | 0.5 µg/mL (≈ 0.838 µM) | 1 µg/mL (≈ 1.68 µM) | 0.5 µg/mL (≈ 0.838 µM) | 0.5 µg/mL (≈ 0.838 µM) | > 32 µg/mL | 8 µg/mL (≈ 13.4 µM) | 16 µg/mL (≈ 26.8 µM) | 4 µg/mL (≈ 6.71 µM) | 28.9 mg/kg | – | – | – | – | –
7 | O=C(C(=O)N1CCN(c2ccc(N3C[C@H](COc4ccon4)OC3=O)cc2F)CC1)c1c[nH]c2ccc(Br)cc12 | > 32 µg/mL | 32 µg/mL (≈ 52.3 µM) | 32 µg/mL (≈ 52.3 µM) | 32 µg/mL (≈ 52.3 µM) | > 32 µg/mL | > 32 µg/mL | 32 µg/mL (≈ 52.3 µM) | 32 µg/mL (≈ 52.3 µM) | 32 µg/mL (≈ 52.3 µM) | – | – | – | – | – | –
8 | CC(=O)NC[C@H]1CN(c2ccc(N3CCN(C(=O)C(=O)c4c[nH]c5ccc(C#N)cc45)CC3)c(F)c2)C(=O)O1 | 1 µg/mL (≈ 1.88 µM) | 1 µg/mL (≈ 1.88 µM) | 1 µg/mL (≈ 1.88 µM) | 0.5 µg/mL (≈ 0.939 µM) | 1 µg/mL (≈ 1.88 µM) | > 32 µg/mL | – | – | – | > 30 mg/kg | 1900 ng·h/mL | 3 h | 430 ng/mL | 1.19 h | 0.000161 s⁻¹
9 | CC(=O)NC[C@H]1CN(c2ccc(N3CCN(C(=O)C(=O)c4c[nH]c5ccc([N+](=O)[O-])cc45)CC3)c(F)c2)C(=O)O1 | 2 µg/mL (≈ 3.62 µM) | 1 µg/mL (≈ 1.81 µM) | 1 µg/mL (≈ 1.81 µM) | 1 µg/mL (≈ 1.81 µM) | 2 µg/mL (≈ 3.62 µM) | > 32 µg/mL | – | – | – | – | – | – | – | – | –
10 | CC(=O)NC[C@H]1CN(c2ccc(N3CCN(C(=O)C(=O)c4c(C)[nH]c5ccccc45)CC3)c(F)c2)C(=O)O1 | 2 µg/mL (≈ 3.83 µM) | 1 µg/mL (≈ 1.92 µM) | 1 µg/mL (≈ 1.92 µM) | 1 µg/mL (≈ 1.92 µM) | 2 µg/mL (≈ 3.83 µM) | > 32 µg/mL | – | – | – | – | – | – | – | – | –
11 | CC(=O)NC[C@H]1CN(c2ccc(N3CCN(C(=O)C(=O)c4cn(C)c5ccccc45)CC3)c(F)c2)C(=O)O1 | 2 µg/mL (≈ 3.83 µM) | 1 µg/mL (≈ 1.92 µM) | 1 µg/mL (≈ 1.92 µM) | 1 µg/mL (≈ 1.92 µM) | 2 µg/mL (≈ 3.83 µM) | > 32 µg/mL | – | – | – | – | – | – | – | – | –
12 | CC(=O)NC[C@H]1CN(c2ccc(N3CCN(C(=O)C(=O)c4c[nH]c5ncccc45)CC3)c(F)c2)C(=O)O1 | 2 µg/mL (≈ 3.93 µM) | 1 µg/mL (≈ 1.97 µM) | 1 µg/mL (≈ 1.97 µM) | 0.5 µg/mL (≈ 0.983 µM) | 1 µg/mL (≈ 1.97 µM) | > 32 µg/mL | – | – | – | > 30 mg/kg | 3360 ng·h/mL | 0.5 h | 1050 ng/mL | 0.87 h | 0.000219 s⁻¹
13 | CC(=O)NC[C@H]1CN(c2ccc(N3CCN(C(=O)C(=O)c4c[nH]c5ccc(Br)cc45)CC3)c(F)c2)C(=O)O1 | 1 µg/mL (≈ 1.71 µM) | 0.5 µg/mL (≈ 0.853 µM) | 1 µg/mL (≈ 1.71 µM) | 0.5 µg/mL (≈ 0.853 µM) | 1 µg/mL (≈ 1.71 µM) | > 32 µg/mL | 8 µg/mL (≈ 13.6 µM) | 8 µg/mL (≈ 13.6 µM) | 2 µg/mL (≈ 3.41 µM) | 27 mg/kg | 2250 ng·h/mL | 2 h | 680 ng/mL | 2.17 h | 8.89e-05 s⁻¹
14 | CC(=S)NC[C@H]1CN(c2ccc(N3CCN(C(=O)C(=O)c4c[nH]c5ccc(Br)cc45)CC3)c(F)c2)C(=O)O1 | 0.5 µg/mL (≈ 0.83 µM) | 0.25 µg/mL (≈ 0.415 µM) | 0.5 µg/mL (≈ 0.83 µM) | 0.12 µg/mL (≈ 0.199 µM) | 0.25 µg/mL (≈ 0.415 µM) | > 32 µg/mL | 2 µg/mL (≈ 3.32 µM) | 2 µg/mL (≈ 3.32 µM) | 2 µg/mL (≈ 3.32 µM) | > 30 mg/kg | – | – | – | – | –
15 | O=C(C(=O)N1CCN(c2ccc(N3C[C@H](CNC(=O)C(F)F)OC3=O)cc2F)CC1)c1c[nH]c2ccc(Br)cc12 | 2 µg/mL (≈ 3.21 µM) | 1 µg/mL (≈ 1.61 µM) | 1 µg/mL (≈ 1.61 µM) | 0.25 µg/mL (≈ 0.402 µM) | 0.5 µg/mL (≈ 0.803 µM) | > 32 µg/mL | 4 µg/mL (≈ 6.43 µM) | 4 µg/mL (≈ 6.43 µM) | 2 µg/mL (≈ 3.21 µM) | > 30 mg/kg | – | – | – | – | –
16 | CC(=O)NC[C@H]1CN(c2ccc(N3CCN(C(=O)C(=O)c4c[nH]c5ccccc45)CC3)c(F)c2)C(=O)O1 | 1 µg/mL (≈ 1.97 µM) | 1 µg/mL (≈ 1.97 µM) | 1 µg/mL (≈ 1.97 µM) | 1 µg/mL (≈ 1.97 µM) | 1 µg/mL (≈ 1.97 µM) | 16 µg/mL (≈ 31.5 µM) | – | – | – | 19.4 mg/kg | – | – | – | – | –
17 | CC(=O)NC[C@H]1CN(c2ccc(N3CCOCC3)c(F)c2)C(=O)O1 [LINEZOLID] | – | 1 µg/mL (≈ 2.96 µM) | – | – | 2 µg/mL (≈ 5.93 µM) | 8 µg/mL (≈ 23.7 µM) | 32 µg/mL (≈ 94.9 µM) | 32 µg/mL (≈ 94.9 µM) | 4 µg/mL (≈ 11.9 µM) | 5.3 mg/kg | 11000 ng·h/mL | 0.25 h | 6310 ng/mL | 1.37 h | 0.000142 s⁻¹
